Some test systems named below: 786-0 renal; ACHN renal; CCRF-CEM leukemia; HT29 colon; M14 melanoma; MALME-3M melanoma; NCI-H23 lung; OVCAR-3 ovarian; SF-539 CNS; UACC-62 melanoma.
What all share (assay): NCI tumour cell line growth inhibition, 48 h

Where “and” joins values, the source holds several entries; their conditions need not be identical. Equal values may be shown once.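 96-well plates; 48 h exposure; 5 concentrations. Endpoints by linear interpolation between flanking doses. Not reached: highest tested concentration assigned. At the GI50, growth is halved. Definition used: TGI = concentration required for complete inhibition of growth.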 A value given as a limit tells only on which side of the number the result lay.

As for `CN1CCN(c2ccc(OC(F)(F)F)c(Nc3ncc4c(n3)-c3c(c(C(N)=O)nn3CCO)CC4)c2)CC1`, the GI50 with 786-0 renal is 0.428 µM and 0.466 µM; with ACHN renal it was 0.43 µM and 0.814 µM; in the test with CCRF-CEM leukemia it was 0.0197 µM and 0.0283 µM; in the test with HT29 colon, 0.0349 µM and 0.0348 µM; with M14 melanoma, 0.0404 µM and 0.0428 µM; with NCI-H23 lung, 0.0397 µM and 0.0732 µM. In addition, the GI50 in the test with OVCAR-3 ovarian was 0.037 µM and 0.0424 µM; with SF-539 CNS it was 0.0363 µM and 0.0682 µM; in the test with UACC-62 melanoma, 0.0454 µM and 0.123 µM. Besides, the TGI was 32.4 µM and > 10 µM in the test with 786-0 renal; 20.2 µM and > 10 µM with ACHN renal; 28.5 µM with CCRF-CEM leukemia; over 82.9 µM in the test on HT29 colon; 29.8 µM and > 10 µM in the test with MALME-3M melanoma; 17.6 µM and > 10 µM in the test with NCI-H23 lung. Moreover, the TGI with OVCAR-3 ovarian is 18.2 µM and > 10 µM; in the test with SF-539 CNS, 12.4 µM and > 4.8 µM; with UACC-62 melanoma, 21.1 µM and > 4.66 µM.

`CNC(=O)c1cc(Oc2cccc3nc(NC(=O)Nc4cc(C(F)(F)F)cc(C(F)(F)F)c4)ccc23)ccn1`: the GI50 in the test with 786-0 renal is 2.41 µM; in the test with ACHN renal, 3.8 µM; with CCRF-CEM leukemia, 29.4 µM; with HT29 colon, 3.51 µM; in the test with M14 melanoma, 10.2 µM; in the test on MALME-3M melanoma it was 2.62 µM. The GI50 with NCI-H23 lung is 6.15 µM; in the test with OVCAR-3 ovarian it was 4.07 µM; in the test with SF-539 CNS, 6.68 µM; in the test on UACC-62 melanoma, 3.56 µM. Moreover, the TGI with 786-0 renal was 5.73 µM; in the test with ACHN renal, 16.4 µM; in the test on CCRF-CEM leukemia, over 100 µM; in the test with HT29 colon, over 100 µM; with M14 melanoma, 62.8 µM; in the test with MALME-3M melanoma it was 12.9 µM. Also, the TGI came out at 42.7 µM with NCI-H23 lung, 21.3 µM with OVCAR-3 ovarian, 37.9 µM with SF-539 CNS and 22.5 µM in the test with UACC-62 melanoma.

As to `Nc1c(C(=O)Nc2ccccn2)sc2nc3c(cc12)C(O)CCC3` (stereo not drawn), the GI50 with 786-0 renal was 1.95 µM; in the test on ACHN renal, 10.7 µM; with CCRF-CEM leukemia, 0.906 µM; in the test with HT29 colon, 1.55 µM; in the test with M14 melanoma, 0.949 µM; in the test on MALME-3M melanoma, 19.3 µM. The GI50 in the test with NCI-H23 lung is 3.05 µM; in the test with OVCAR-3 ovarian, 1.35 µM; in the test with SF-539 CNS, 1.47 µM; in the test on UACC-62 melanoma, 1.75 µM. Also, the TGI in the test on 786-0 renal, in the test with ACHN renal, in the test on CCRF-CEM leukemia, with HT29 colon, in the test with M14 melanoma and in the test on MALME-3M melanoma was over 50 µM in each case. Besides, the TGI in the test on NCI-H23 lung is over 50 µM; with OVCAR-3 ovarian, 4.11 µM; in the test with SF-539 CNS, over 50 µM; in the test with UACC-62 melanoma, over 50 µM.

In the case of `CCN(CC)c1c(-c2ccccc2)n[nH]c1C(=O)OC`, the GI50 was 32.7 µM in the test on 786-0 renal; 28.8 µM in the test with ACHN renal; 22.8 µM with CCRF-CEM leukemia; 19.4 µM in the test on HT29 colon; 30.1 µM with M14 melanoma; 15.9 µM with MALME-3M melanoma. In addition, the GI50 is 42.4 µM in the test with NCI-H23 lung, 15.1 µM with OVCAR-3 ovarian, 20.1 µM in the test with SF-539 CNS and 15.5 µM in the test on UACC-62 melanoma. The TGI is 96.2 µM with 786-0 renal; 74.3 µM with ACHN renal; 71 µM in the test with CCRF-CEM leukemia; 33.5 µM in the test with HT29 colon; 86.9 µM in the test with M14 melanoma; 41.5 µM in the test with MALME-3M melanoma. Further, the TGI in the test with NCI-H23 lung was over 100 µM; in the test with OVCAR-3 ovarian, 36.8 µM; in the test with SF-539 CNS it was 36.5 µM; in the test on UACC-62 melanoma, 37.7 µM.

For the compound `CN(C)CCC(/C=C/c1ccccc1)=N\Nc1ccc(Cl)c(Cl)c1`, the TGI was determined as 9.26 µM in the test on 786-0 renal; 4.49 µM with ACHN renal; 10.1 µM in the test on CCRF-CEM leukemia; 5.01 µM in the test with HT29 colon; 7.22 µM in the test with M14 melanoma; 32.8 µM in the test with MALME-3M melanoma. The TGI was determined as 8.93 µM in the test on NCI-H23 lung, 16.8 µM with OVCAR-3 ovarian, 4.17 µM with SF-539 CNS and 7.25 µM in the test with UACC-62 melanoma.

For `COc1cccc(-c2nn(-c3ccccc3)cc2-c2ccnc(NCCCNC(=O)c3cccc(C(F)(F)F)c3)c2)c1`, the GI50 in the test on 786-0 renal is 3.75 µM; in the test with ACHN renal it was 4.08 µM; in the test on CCRF-CEM leukemia it was 6.11 µM; with HT29 colon, 3.61 µM; in the test on M14 melanoma, 4.63 µM; in the test on MALME-3M melanoma, 2.66 µM. Besides, the GI50 with NCI-H23 lung is 4.49 µM; with OVCAR-3 ovarian it was 4.52 µM; in the test with SF-539 CNS, 2.92 µM; in the test on UACC-62 melanoma, 3.58 µM. In addition, the TGI with 786-0 renal was 15.1 µM; in the test with ACHN renal it was 18.3 µM; with CCRF-CEM leukemia, over 100 µM; in the test with HT29 colon, 13.6 µM; in the test with M14 melanoma, 30.3 µM; with MALME-3M melanoma, 8.22 µM. Further, the TGI in the test with NCI-H23 lung was found to be 24.2 µM; in the test with OVCAR-3 ovarian, 19.7 µM; in the test on SF-539 CNS, 8.29 µM; in the test on UACC-62 melanoma, 16.2 µM.

Turning to `Cc1cc(N(CCC#N)CCC#N)ccc1N=Nc1cc(Cl)ccc1Cl`, the TGI in the test with 786-0 renal stood at 28.9 µM; in the test with ACHN renal, 25.4 µM; with CCRF-CEM leukemia, 19.2 µM; in the test with HT29 colon, 13.1 µM; in the test with M14 melanoma it was 11.4 µM; with MALME-3M melanoma it was 17.9 µM. For the same compound, the TGI is 28.1 µM in the test on NCI-H23 lung, 18.2 µM with OVCAR-3 ovarian, 19.4 µM in the test on SF-539 CNS and 21.7 µM in the test with UACC-62 melanoma.

For `C=CC(COC(=O)C(C)(C)OC(C)=O)c1ccc(OC(=O)C(C)C)c(OC)c1` (stereo not drawn), the TGI is over 24.9 µM in the test on 786-0 renal; 8.77 µM in the test on ACHN renal; over 22 µM in the test with CCRF-CEM leukemia; over 36.1 µM in the test with HT29 colon; 21.8 µM in the test with M14 melanoma; 8.78 µM in the test with MALME-3M melanoma. The TGI in the test on NCI-H23 lung amounted to 39.3 µM; with OVCAR-3 ovarian, 28.9 µM; in the test on SF-539 CNS, 27.5 µM; in the test on UACC-62 melanoma it was 27.8 µM.

For the origin of these results see PubChem BioAssay (NCI).
